Test results from ChEMBL document CHEMBL3853358, “Concise SAR Exploration Based on the "Head-to-Tail" Approach: Discovery of PI4KIIIα Inhibitors Bearing Diverse Scaffolds” (ACS Med Chem Lett, 2016).

Tests used:
Hepatitis C virus [1] = test: Antiviral activity against HCV genotype 1b Con1 infected in human Huh5-2 cells co-expressing subgenomic HCV replicon NS3 assessed as reduction in viral replication after 2 days by luciferase reporter gene assay; assay type: functional, cell-based, Hepacivirus hominis; conditions: genotype 1b Con1, Huh-5-2, 48 h
Homo sapiens = species: Homo sapiens; test: Selectivity ratio of IC50 for human Flag-tagged PI4K3beta expressed in insect cells to IC50 for human Flag-tagged PI4K3alpha expressed in insect cells
[2] = Inhibition of human Flag-tagged PI4K3alpha expressed in insect cells preincubated with enzyme followed by PS:PI substrate and ATP addition measured after 60 mins by HTRF Transcreener ADP assay
[3] = Inhibition of human Flag-tagged PI4K3beta expressed in insect cells preincubated with enzyme followed by PS:PI substrate and ATP addition measured after 60 mins by HTRF Transcreener ADP assay
[4] = Inhibition of human Flag-tagged PI4K3beta expressed in insect cells preincubated with enzyme followed by PS:PI substrate and ATP addition measured after 60 mins by ADP-Glo kinase assay
[5] = Inhibition of human Flag-tagged PI4K3alpha expressed in insect cells preincubated with enzyme followed by PS:PI substrate and ATP addition measured after 60 mins by ADP-Glo kinase assay
[6] = Terminal half life in CD(Sprague-Dawley) rat at 0.3 mg/kg, iv administered as single dose; assay type: ADME, organism-based; conditions: in vivo, read-out: beta t1/2 (converted)
Hepatitis C virus [7] = test: Antiviral activity against HCV genotype […] Con1 infected in human Huh5-2 cells co-expressing subgenomic HCV replicon NS3 assessed as reduction in viral replication after 2 days by luciferase reporter gene assay; assay type: functional, cell-based, Hepacivirus hominis, genotype 1b Con1; conditions: Huh-5-2, 48 h
[8] = AUC (0 to infinity) in CD(Sprague-Dawley) rat at 1 mg/kg, po administered as single dose measured up to 25 hrs; assay type: ADME, organism-based; parameters: dose 1 mg/kg, route oral, time infinity; conditions: in vivo
[9] = MRT in CD(Sprague-Dawley) rat at 1 mg/kg, po administered as single dose; assay type: ADME, organism-based; conditions: in vivo
[10] = Oral bioavailability in CD(Sprague-Dawley) rat at 1 mg/kg administered as single dose measured up to 25 hrs; assay type: ADME, organism-based; conditions: in vivo
[11] = Metabolic stability in rat liver microsomes assessed as compound remaining at 5 uM measured up to 60 mins; assay type: ADME; conditions: read-out: Stability
[12] = target: Phosphatidylinositol 4,5-bisphosphate 3-kinase catalytic subunit beta isoform (Homo sapiens, UniProt P42338); test: Inhibition of PI3Kbeta (unknown origin) preincubated prior addition of PIP2 as substrate and ATP measured after 30 mins by HTRF assay
[13] = Metabolic stability in human liver microsomes assessed as compound remaining at 5 uM measured up to 60 mins; assay type: ADME; conditions: read-out: Stability
[14] = target: Phosphatidylinositol 4,5-bisphosphate 3-kinase catalytic subunit alpha isoform (Homo sapiens, UniProt P42336); test: Inhibition of PI3Kalpha (unknown origin) preincubated prior addition of PIP2 as substrate and ATP measured after 30 mins by HTRF assay
[15] = Total clearance in CD(Sprague-Dawley) rat at 0.3 mg/kg, iv administered as single dose measured up to 25 hrs; assay type: ADME, organism-based; conditions: in vivo
[16] = Volume of distribution at steady state in CD(Sprague-Dawley) rat at 0.3 mg/kg, iv administered as single dose measured up to 25 hrs; assay type: ADME, organism-based; conditions: in vivo, read-out: Vdss

Phosphatidylinositol 4,5-bisphosphate 3-kinase catalytic subunit alpha isoform, sequence (P42336 whole entry, canonical isoform): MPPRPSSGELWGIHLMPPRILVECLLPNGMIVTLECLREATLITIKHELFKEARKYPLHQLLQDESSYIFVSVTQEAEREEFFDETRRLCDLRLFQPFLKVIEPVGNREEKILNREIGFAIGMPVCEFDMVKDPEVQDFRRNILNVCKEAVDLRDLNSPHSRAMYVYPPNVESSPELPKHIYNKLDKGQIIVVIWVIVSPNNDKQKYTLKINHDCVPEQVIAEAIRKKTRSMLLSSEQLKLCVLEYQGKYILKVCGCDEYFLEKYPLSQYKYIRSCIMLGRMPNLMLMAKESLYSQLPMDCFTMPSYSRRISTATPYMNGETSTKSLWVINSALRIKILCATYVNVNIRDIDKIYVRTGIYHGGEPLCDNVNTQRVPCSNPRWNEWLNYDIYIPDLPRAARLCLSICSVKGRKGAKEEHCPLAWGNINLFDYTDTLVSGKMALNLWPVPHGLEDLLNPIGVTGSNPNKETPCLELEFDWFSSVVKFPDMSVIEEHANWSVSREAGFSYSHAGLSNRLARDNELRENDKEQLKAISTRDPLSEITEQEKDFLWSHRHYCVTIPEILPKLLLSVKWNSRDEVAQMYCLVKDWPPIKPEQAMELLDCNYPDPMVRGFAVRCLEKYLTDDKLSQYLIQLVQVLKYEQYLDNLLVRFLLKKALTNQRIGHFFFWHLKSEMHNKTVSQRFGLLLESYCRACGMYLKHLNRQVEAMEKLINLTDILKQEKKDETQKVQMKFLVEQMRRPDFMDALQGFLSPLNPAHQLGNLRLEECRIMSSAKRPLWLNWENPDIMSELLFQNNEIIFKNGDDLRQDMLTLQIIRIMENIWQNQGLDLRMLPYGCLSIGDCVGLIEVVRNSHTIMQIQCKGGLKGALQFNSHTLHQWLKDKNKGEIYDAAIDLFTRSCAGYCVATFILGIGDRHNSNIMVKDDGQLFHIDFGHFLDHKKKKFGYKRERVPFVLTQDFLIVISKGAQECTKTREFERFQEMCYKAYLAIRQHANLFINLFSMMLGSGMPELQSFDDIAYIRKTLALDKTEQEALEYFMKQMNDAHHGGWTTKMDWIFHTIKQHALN
Phosphatidylinositol 4,5-bisphosphate 3-kinase catalytic subunit beta isoform, sequence (P42338 whole entry, canonical isoform): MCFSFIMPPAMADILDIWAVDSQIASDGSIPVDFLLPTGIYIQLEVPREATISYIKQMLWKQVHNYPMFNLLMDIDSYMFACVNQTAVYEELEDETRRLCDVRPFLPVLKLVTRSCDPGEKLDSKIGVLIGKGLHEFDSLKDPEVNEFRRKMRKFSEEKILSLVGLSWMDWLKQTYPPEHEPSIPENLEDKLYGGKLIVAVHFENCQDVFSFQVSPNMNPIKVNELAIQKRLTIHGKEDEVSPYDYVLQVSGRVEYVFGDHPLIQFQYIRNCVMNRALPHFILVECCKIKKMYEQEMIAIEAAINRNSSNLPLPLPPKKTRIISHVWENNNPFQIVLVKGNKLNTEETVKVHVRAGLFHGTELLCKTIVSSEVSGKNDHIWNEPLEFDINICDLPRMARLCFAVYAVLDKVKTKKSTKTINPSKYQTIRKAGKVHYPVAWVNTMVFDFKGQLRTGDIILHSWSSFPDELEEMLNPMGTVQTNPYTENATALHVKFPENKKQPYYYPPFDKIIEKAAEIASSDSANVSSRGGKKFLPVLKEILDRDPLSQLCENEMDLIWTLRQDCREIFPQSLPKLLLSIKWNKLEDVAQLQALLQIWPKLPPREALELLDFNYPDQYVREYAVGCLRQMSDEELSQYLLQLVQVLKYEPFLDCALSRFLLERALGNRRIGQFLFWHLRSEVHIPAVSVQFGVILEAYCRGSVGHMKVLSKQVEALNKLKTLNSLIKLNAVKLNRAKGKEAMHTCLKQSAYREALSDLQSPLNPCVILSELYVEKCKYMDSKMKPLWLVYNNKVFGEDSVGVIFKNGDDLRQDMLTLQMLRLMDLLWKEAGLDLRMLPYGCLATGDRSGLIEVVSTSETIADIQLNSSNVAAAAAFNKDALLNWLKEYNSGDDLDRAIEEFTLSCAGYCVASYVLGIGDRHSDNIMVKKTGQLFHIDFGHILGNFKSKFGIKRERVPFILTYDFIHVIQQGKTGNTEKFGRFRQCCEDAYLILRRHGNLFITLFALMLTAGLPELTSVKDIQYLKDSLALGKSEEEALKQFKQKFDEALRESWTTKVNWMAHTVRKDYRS

Compound | EC50 (Hepatitis C virus [1]) [nM] | Ratio IC50 (Homo sapiens) | IC50 [2] [nM] | IC50 [3] [nM] | also measured
CCCn1cnc2ccc(-c3cnc(COC)c(NS(=O)(=O)c4ccc(F)cc4F)c3)cc2c1=O | 10 | 120 | 1.9 | 230 | 
COCc1ncc(-c2ccc3ncn(-c4ccccc4)c(=O)c3c2)cc1NS(=O)(=O)c1ccc(F)cc1F | 20 | 1200 |  |  | IC50 [4]: 4900 nM; IC50 [5]: 4.1 nM
COCc1ncc(-c2ccc3nn(C)c(C4CCOCC4)c3c2)cc1NS(=O)(=O)c1ccc(F)cc1F | 29 | 20 | 2 | 39 | 
COCc1ncc(-c2c3ccc(-c4ccccc4)cc3nn2C)cc1NS(=O)(=O)c1ccc(F)cc1F | 700 | 96 | 260 | 18000 | 
COCc1ncc(-c2ccc3nn(C)c(C4=CCOCC4)c3c2)cc1NS(=O)(=O)c1ccc(F)cc1F | 50 | 32 | 3.1 | 98 | 
COCCn1cnc2ccc(-c3cnc(COC4CC4)c(NS(=O)(=O)c4ccc(F)cc4F)c3)cc2c1=O | 6.8 | 710 | 0.31 | 220 | half-life [6]: 3.3 h; EC50 (Hepatitis C virus [7]): 10 nM; AUC(0-inf) [8]: 42 µM·h; MRT [9]: 5.5 h; bioavailability [10]: 91%; remaining at 1 h, 5 µM [11]: 91%; IC50 [12]: 1400 nM; remaining at 1 h, 5 µM [13]: 104%; IC50 [14]: 240 nM; clearance [15]: 0.667 mL/min/kg; Vd [16]: 0.2 L/kg
COC(C)c1ncc(-c2ccc3ncn(-c4ccccc4)c(=O)c3c2)cc1NS(=O)(=O)c1ccc(F)cc1F (racemic) | 400 | > 3000 |  |  | IC50 [4]: > 30000 nM; IC50 [5]: 100 nM
COCc1ncc(-c2ccc3ncc(-c4ccccc4)c(=O)n3c2)cc1NS(=O)(=O)c1ccc(F)cc1F | 68 | 1030 | 8 | 8200 | 
COc1ncc(-c2ccc3ncn(-c4ccccc4)c(=O)c3c2)cc1NS(=O)(=O)c1ccc(F)cc1F |  | 56 |  |  | IC50 [4]: 780 nM; IC50 [5]: 14 nM
COCc1ncc(-c2ccc3ncn(CCS(C)(=O)=O)c(=O)c3c2)cc1NS(=O)(=O)c1ccc(F)cc1F | 88 | 100 | 1.6 | 160 | 
COCc1ncc(-c2c3ccc(C4CCOCC4)cc3nn2C)cc1NS(=O)(=O)c1ccc(F)cc1F | 31 | 53 | 5.7 | 300 | 
COc1ncc(-c2ccc3ncn(-c4ccccc4)c(=O)c3c2)cc1S(=O)(=O)Nc1ccc(F)cc1F | 99 | > 160 |  |  | IC50 [4]: > 30000 nM; IC50 [5]: 190 nM
COCCn1cnc2ccc(-c3cnc(COC)c(NS(=O)(=O)c4ccc(F)cc4F)c3)cc2c1=O | 13 | 130 | 1 | 130 | 
COCc1ncc(-c2ccc3nnn(-c4ccccc4)c3c2)cc1NS(=O)(=O)c1ccc(F)cc1F | 1000 | 74 | 50 | 3700 | 
COCc1ncc(-c2ccc3ncn(CCO)c(=O)c3c2)cc1NS(=O)(=O)c1ccc(F)cc1F | 81 | 260 | 2.5 | 660 | 
COCc1ncc(-c2ccn3nnc(-c4ccccc4)c3c2)cc1NS(=O)(=O)c1ccc(F)cc1F | 780 | > 110 | 93 | > 10000 | 
COc1ncc(-c2ccc3ncn(-c4ccccc4)c(=O)c3c2)cc1CS(=O)(=O)c1ccc(F)cc1F | > 30000 | > 30 |  |  | IC50 [4]: > 30000 nM; IC50 [5]: > 1000 nM
COCc1ncc(-c2ccc3ncc(=O)n(-c4ccccc4)c3c2)cc1NS(=O)(=O)c1ccc(F)cc1F | 41 | 640 | 2.2 | 1400 | 
COCc1ncc(-c2ccc3nn(C)c(-c4ccccc4)c3c2)cc1NS(=O)(=O)c1ccc(F)cc1F | 610 | 22 | 9.1 | 200 | 
COCc1ncc(-c2ccc3ncn(-c4ccccc4)c3c2)cc1NS(=O)(=O)c1ccc(F)cc1F | 880 | 32 | 13 | 410 | 
COCc1ncc(-c2c3ccc(C4=CCOCC4)cc3nn2C)cc1NS(=O)(=O)c1ccc(F)cc1F | 78 | 58 | 16 | 920 | 
